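Protocol summary: plate cells (96-well), add compound at 5 concentrations, incubate 48 h, interpolate endpoints linearly. Abbreviation: GI50, concentration required for 50% inhibition of growth. TGI denotes the concentration required for complete inhibition of growth.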 Where a SMILES comes first, the peptide text is derived from it. [ ]: non-standard residue; d: D form.
Legend:
Assay in all cases: NCI tumour cell line growth inhibition, 48 h
[1] = tested on: MALME-3M melanoma
[2] = tested on: BT-549 breast
[3] = tested on: KM12 colon
[4] = tested on: T-47D breast
[5] = tested on: NCI-H522 lung
[6] = tested on: SR leukemia

Compound | GI50 [1] | TGI [1] | GI50 [2] | TGI [2] | GI50 [3] | TGI [3] | GI50 [4] | TGI [4] | GI50 [5] | TGI [5] | GI50 [6] | TGI [6]
CC[C@@H](C(=O)[C@@H](C)[C@@H](O)[C@H](C)[C@@H]1O[C@@H]([C@@H](CC)C(=O)O)CC[C@@H]1C)[C@H]1O[C@]2(C=C[C@@H](O)[C@]3(CC[C@@](C)([C@H]4CC[C@](O)(CC)[C@H](C)O4)O3)O2)[C@H](C)C[C@@H]1C | 0.416 µM | 1.81 µM | 0.248 µM | 4.33 µM | 1.18 µM | 15.7 µM | 0.383 µM | 16.7 µM | 0.0469 µM | 0.47 µM | – | –
CNc1nc(-c2ccc3c(N)n[nH]c3c2)cc(N2C[C@@H](C(=O)NC3CCCCC3)CC[C@H]2C)n1 | 0.302 µM | 10.7 µM | 1.91 µM | 12.3 µM | 8.37 µM | 22.4 µM | 0.13 µM | 5.3 µM | 4.52 µM | 18.3 µM | – | –
COc1cc2c(=O)n(CC3CCCCC3)c3c4cc[nH]c4ncc3c2cc1OC | 6.33 µM | 26.3 µM | 0.807 µM | 14.7 µM | 0.0362 µM | 34.9 µM | 3.66 µM | > 50 µM | 1.34 µM | 18.3 µM | 0.313 µM | > 50 µM
CC(=O)/C(=C/N1CCN(C(=O)c2ccco2)C1=S)C(=O)c1ccccc1 | 9.28 µM | 46.7 µM | 5.54 µM | 18.1 µM | 8.4 µM | > 50 µM | 4.29 µM | > 50 µM | – | – | 2.71 µM | 13.4 µM
N#Cc1cc2c(cc1Cl)SC(=Nc1ccccc1)N(S(=O)(=O)c1ccc(Br)s1)S2(=O)=O | – | – | 17.7 µM | 32.2 µM | 18.7 µM | 35.7 µM | 24.3 µM | 75 µM | 15.5 µM | 39.1 µM | – | –
CC(=O)OC1=C(CC(C)(C)C)C(=O)c2ccccc2C1=O | – | – | – | – | – | > 100 µM | – | > 100 µM | – | – | – | 50.7 µM
CCSc1nc(N)c2cnn(CC)c2n1 | 18 µM | 59 µM | – | – | 3.15 µM | > 100 µM | 17.3 µM | > 100 µM | > 100 µM | > 100 µM | 2.27 µM | 48.9 µM
CCCCCCCCc1cc(O)ccc1O | 16.6 µM | 34.4 µM | 10.9 µM | 23.3 µM | 21.4 µM | 51.6 µM | 14.2 µM | 37.6 µM | 5.65 µM | 25.3 µM | 15 µM | 50.8 µM
Cc1c2ccccc2c(C)n2c1nc1cc(Cl)c(Cl)cc12 | > 100 µM | – | > 100 µM | > 100 µM | > 100 µM | > 100 µM | 3.95 µM | > 100 µM | 15.1 µM | 80.3 µM | 12.9 µM | 44.7 µM
CSCC[C@H](NC(=O)[C@@H](N)CC(N)=O)C(=O)N[C@@H](Cc1c[nH]c2ccccc12)C(=O)N[C@@H](CCC(N)=O)C(=O)N[C@@H](CCC(=O)O)C(=O)N[C@H](C(=O)NCC(=O)N[C@@H](CCCCN)C(=O)N[C@H](C)C(=O)O)C(C)C (H-NMWQEVGK[dA]-OH) | – | > 100 µM | – | – | – | > 100 µM | – | > 100 µM | – | – | – | –
CCOC(=O)CN1C(=O)C(=O)N(c2ccc(OC)c3ccccc23)C1=O | – | > 100 µM | – | > 100 µM | – | > 100 µM | – | > 100 µM | – | > 100 µM | – | > 100 µM
CN(C)CCOc1ccc2c(c1)C(=O)/C(=C\c1ncc([N+](=O)[O-])n1C)C2 | 0.371 µM | 1.69 µM | 0.146 µM | 0.529 µM | 1.19 µM | 3.21 µM | 1.76 µM | 11.4 µM | 0.191 µM | 0.492 µM | 0.416 µM | 0.96 µM
CSc1nc2ccc(C)cc2cc1/C=C1/C=C(c2ccccc2)NC1=O | 3.08 µM | 25.9 µM | 3.94 µM | 22.9 µM | 3.13 µM | 82.9 µM | 1.66 µM | 24.5 µM | 3.53 µM | 42.5 µM | 0.598 µM | > 100 µM
COC(=O)c1cc(C)[nH]c2c(C)cc3nc4ccccc4c3c12 | 14.7 µM | 28.5 µM | 12.1 µM | 25 µM | 4.94 µM | 18.1 µM | 3.2 µM | 12.9 µM | 3.23 µM | 14.5 µM | 6.13 µM | 58.2 µM
Cc1cn2cc(-c3ccc4c(c3)CC(=O)N4)nc2s1 | > 100 µM | > 100 µM | > 100 µM | > 100 µM | 44.2 µM | > 100 µM | 43.4 µM | > 100 µM | 99.6 µM | > 100 µM | – | –
C[C@@H](C[C@H](CCO)c1ccccc1)c1ccc2ccccc2c1 | 1.49 µM | 2.89 µM | 1.68 µM | 3.1 µM | 1.4 µM | 2.83 µM | 1.44 µM | 3.11 µM | 1.33 µM | 2.78 µM | – | –
CN1CCN(c2nc3cc(F)ccc3n3cccc23)CC1 | – | 62.4 µM | – | > 100 µM | – | > 100 µM | – | > 100 µM | – | > 100 µM | – | > 100 µM
C=C(CN1CCN(c2ccc(F)c(Cl)c2)CC1)c1ccc(C(=O)Nc2ccccc2N)cc1 | 4.35 µM | 37.2 µM | 3.51 µM | 26.5 µM | 4.07 µM | > 100 µM | > 100 µM | > 100 µM | 1.8 µM | 5.33 µM | – | –
COC(=N)CCCl | – | > 100 µM | – | > 100 µM | – | > 100 µM | – | – | – | > 100 µM | – | > 100 µM
COc1ccc2c(c1)[nH]c1c3ccc(OC)cc3oc(=O)c21 | – | > 100 µM | – | > 100 µM | – | > 100 µM | – | > 100 µM | – | – | – | –
O=C(N/N=C/c1ccc(N(CCCl)CCCl)cc1)c1ccc(C(=O)N/N=C/c2ccc(N(CCCl)CCCl)cc2)cc1 | 11.2 µM | > 100 µM | 2.34 µM | 76.5 µM | 15.8 µM | > 100 µM | 5.54 µM | > 100 µM | 0.465 µM | > 100 µM | – | > 100 µM
CC1=C(SCCC(=O)OC(C[Se]C2=C(C)C(=O)c3ccccc3C2=O)C(=O)NC(C)(C)C)C(=O)c2ccccc2C1=O (configuration not stated) | 2.01 µM | 3.89 µM | 1.64 µM | 3.05 µM | 0.86 µM | 2.18 µM | 0.904 µM | 2.95 µM | 1.57 µM | 3.4 µM | – | –
